Our source for the IC50 values is BindingDB's records for doi:10.1111/cbdd.12372 (Beijing University of Technology, 2015).

Structures are written as SMILES. pIC50: −log10 of the molar value.

For this test, the target named is T1, Casein kinase II subunit alpha [1-337] (Homo sapiens, UniProt P68400).
T1 construct: 1-337
In words: Molecular Docking. From the text: The atomic co-ordinates of CK2α were retrieved from the Protein Data Bank [PDB ID: 3PE1] by deleting the heteroatoms except for water molecules within 6.5 of the ligand. Compounds 12, 23, 10, and 27 were constructed with the SYBYL 8.1 programa using compound CX-4945 as the template and were energy minimized with the Tripos force field. Four compounds were docked into the active site of CK2α using the molecular docking program Genetic Optimization for Ligand Docking (GOLD) version 3.0. The active site of CK2α was defined as a 6.5- -radius sphere centered on CX-4945, which comprise all complete amino acids there in. The crystal structure of CK2a in complex with compound CX-4945 was used to optimize docking parameters and evaluate the reliability of the docking methods. The standard default genetic algorithm (GA) parameters were used for all calculations and applied to predi

T1 sequence (P68400 1-337): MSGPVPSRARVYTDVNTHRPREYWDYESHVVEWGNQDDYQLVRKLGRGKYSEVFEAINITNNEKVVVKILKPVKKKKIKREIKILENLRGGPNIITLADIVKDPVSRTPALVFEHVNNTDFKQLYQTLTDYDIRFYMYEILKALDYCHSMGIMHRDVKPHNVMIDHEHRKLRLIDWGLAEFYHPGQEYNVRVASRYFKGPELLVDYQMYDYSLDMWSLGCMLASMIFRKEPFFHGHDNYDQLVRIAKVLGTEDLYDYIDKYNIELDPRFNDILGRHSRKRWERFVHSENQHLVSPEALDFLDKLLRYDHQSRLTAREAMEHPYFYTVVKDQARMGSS

On to `N#Cc1ccc2c(c1)nc(-c1ccc(Cl)cc1)c1ccncc12` [5-(4-chlorophenyl)benzo[c]2,6-naphthyridine-8-carbonitrile (Compound 10)], for which the pIC50 is < 5.60.
